In patent US20070202079A1, “Therapeutic compositions and methods useful in modulating protein tyrosine phosphatases” (priority 2006, published 2007):

Experiments:
PTP1B = molecular target: T1, PTP1B (Homo sapiens, UniProt P18031); experiment: in vitro PTPase assay, GST/PTP1B; format: biochemical
T1 construct: purchased Upstate Biotechnology Inc. (Lake Placid, N.Y.)
Method: In vitro PTPase activities were measured using the commercial protein tyrosine phosphatase assay kit (Upstate Biotechnology, Inc. (“UBI”)) following established procedure known to one of skill in the art. This assay measures the in vitro dephosphorylation of a synthetic phosphotyrosine peptide of the sequence Arg-Arg-Leu-Ile-Glu-Asp-Ala-Gle-T- -yr-Ala-Ala-Arg-Gly, wherein the tyrosine is phosphorylated (SEQ ID NO: 3). Briefly, 0.01 μg of GST/PTPase fusion proteins was incubated in 50 μl of Tris buffer (10 mM Tris, pH 7.4) containing different concentrations of inhibitors or chemicals (0-1,000 μg/ml) at 22° C. for 10 minutes, followed by addition of 0.2 mM of the phosphotyrosine peptide and incubation at 22° C. for 18 hours. 100 μl of Malachite Green solution was added and incubated for 5 minutes, and the absorbance at 660 nm was measured after 5 minutes.
In vitro PTPase assays were used to determine the effects of levamisole (Sigma), pentamidine (American Pharmaceutical Partners, Inc.), and ketoconazole (Sigma) on recombinant PTPases, following established procedures (Pathak et al., J. Immunol. 167, 3391 (2001); Pathak et al., Leukemia 16, 2285 (2002), Yi et al., J. Immunol. 169, 5978 (2002)) using a synthetic phosphotyrosine peptide or DiFMUP as the substrate as detailed above in section I.A.2.

[1] = tested on: Jak2/Stat5 tyrosine phosphorylation in Baf3 cells; experiment: cellular protein tyrosine phosphorylation in Baf3 cells, Western blotting; format: cell-based, murine
Method: For induction of cellular protein phosphorylation by sodium stibogluconate or pervanadate, Baf3 cells were incubated in 0.1% FCS-RPMI 1640 medium at 37° C. for 16 hours. The cells were then washed twice in RPMI 1640 medium and incubated with sodium stibogluconate or pervanandate (0.1 mM) for various times prior to termination by lysing cells in cold lysis buffer (50 mM Tris, pH 7.4; 150 mM NaCl; 0.2 mM Na3VO4; 20 mm NaF; 1% Nonidet P-40; 2 mM PMSF; 20 μg/ml of Aprotinin and 1 mM of sodium molybdic acid). To determine the effect of sodium stibogluconate or potassium antimonyl tartrate on IL-3-induced Jak/Stat phosphorylation, Baf3 cells were deprived of the growth factor for 16 hours in 0.1% FCS RPMI 1640 medium and then incubated with or without sodium stibogluconate or potassium antimonyl tartrate for 10 minutes. IL-3 was next added to the cell suspension and incubated for various times. The Cells were then harvested and lysed in cold lysis buffer at 4° C. for 45 minutes. Total cell lysates (TCL) were separated in SDS-PAGE gels, blotted onto nitrocellulose membrane (Schleicher & Schuell), probed with specific antibodies and detected using an enhanced chemiluminescence kit (ECL, Amersham, Arlington Heights, Ill.).

[2] = tested on: IFNγ+ cells in human peripheral blood; experiment: ELISPOT assays of peripheral blood treated in vitro; format: cell-based; details: comparable conditions
Baf3 cells = experiment: Baf3 cell proliferation assay; format: cell-based, murine
Method: The murine hematopoietic cell line Baf3 was maintained in RPMI 1640 medium supplemented with 10% fetal calf serum (FCS) and murine IL-3 (20 units/ml) as described previously in Damen et al., J. Biol. Chem. 270, 23402 (1995). Human myeloid cell line TF-1 was maintained in RPMI 1640 supplemented with 10% FCS and 40 ng/ml of recombinant human GM-CSF as described previously in Thomassen et al., Clin. Immunol. 95, 85 (2000). For cell proliferation assays, cells were washed in 10% FCS medium twice, resuspended in 10% FCS medium, incubated at 37° C. for 16 hours, and then cultured at 37° C. in 10% FCS medium containing various amounts of cytokines, sodium stibogluconate, or potassium antimonyl tartrate for 3-6 days as indicated. The cell numbers in proliferation assays were determined by an MTT assay or by microscopic cell counting as indicated.

DU145 cells = experiment: DU145 cell growth, MTT; format: cell-based, human
Method: For cell proliferation assays, cells were grown in 10% FCS culture medium containing various amounts of IFNs and/or sodium stibogluconate in 96 well plates and cultured at 37° C. for 3 or 6 days as indicated. The numbers of viable cells in proliferation assays were determined by MTT assays as described in Phatak et al., J. Immunol. 167, 3391 (2001).
NIH3T3 (Yi, et al., Blood 85, 87 (1995)), WM9 (Forsberg, et al., Proc. Nat. Acad Sci. USA 90, 393 (1993)), DU145 (Mickey, et al., Cancer Res. 37, 4049 (1977)), LoVo (Drewinko, et al., Cancer Res. 36, 467 (1976)), HEY (Buick, et al., Cancer Res. 45, 3668 (1985)), U251 (Yoshida, et al., Cancer 50, 410 (1982)), A549 (Giard, et al., J. Natl. Cancer Inst. 51, 1417 (1973)) and SK-N-SH (Helson, et al., Cancer Res. 35, 2594 (1975)) cell lines have been described and were cultured in RPMI 1640 supplemented with 10% fetal calf serum (FCS). For measurement of sodium stibogluconate effects on cell growth in vitro, cells were cultured in the absence (−) or presence (+) of various amounts of sodium stibogluconate for 6 days with viable cells quantified by MTT assays (Mosmann, J. Immunol. Methods 65, 55 (1983)). Percentages of growth inhibition by sodium stibogluconate were calculated (.+−.x%).

T1 sequence (P18031 whole entry, species assumed): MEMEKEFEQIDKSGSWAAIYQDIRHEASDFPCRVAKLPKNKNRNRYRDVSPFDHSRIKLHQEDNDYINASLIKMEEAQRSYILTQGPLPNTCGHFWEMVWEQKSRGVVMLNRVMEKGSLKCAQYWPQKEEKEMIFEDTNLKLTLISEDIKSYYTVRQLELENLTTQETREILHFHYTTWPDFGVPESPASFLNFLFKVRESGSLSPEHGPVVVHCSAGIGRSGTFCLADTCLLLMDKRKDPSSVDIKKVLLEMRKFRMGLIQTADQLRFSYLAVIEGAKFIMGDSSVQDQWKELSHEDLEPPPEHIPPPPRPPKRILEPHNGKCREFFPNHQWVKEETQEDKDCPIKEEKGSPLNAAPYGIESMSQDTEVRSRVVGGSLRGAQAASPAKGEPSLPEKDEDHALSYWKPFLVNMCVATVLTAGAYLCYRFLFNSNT

Structure (SMILES): O.O.O.O.O.O.O.O.O.O=C([O-])[C@@H]1[O][Sb]2([O-])([O][Sb]34([OH])[O][C@H]([C@H](O)CO)[C@H]([O]3)[C@H](C(=O)[O-])[O]4)[O][C@H]([C@H](O)CO)[C@@H]1[O]2.[Na+].[Na+].[Na+] [sodium stibogluconate]
- inhibition of PTP1B compared with the three drugs (PTP1B): only modestly effective
- induction of cellular protein tyrosine phosphorylation ([1]; Baf3 deprived of IL-3, compared with pervanadate 0.1 mM): modest and transient
- phosphotyrosine levels of Jak2 and Stat5 versus cells without drug ([1]; IL-3 stimulated, densitometry): about twice
- Jak2/Stat5 tyrosine phosphorylation by drug alone ([1]; no IL-3, 16 hours at 37 °C): failed to induce Jak2/Stat5 tyrosine phosphorylation
- cells expressing TH2 cytokine IL-5 [2]: not induced
- effect on IL-3-induced Baf3 growth (Baf3 cells; 1,000 μg/ml): suppressed IL-3-induced Baf3 growth
- proliferation and viability in the absence of IL-3 (Baf3 cells; day 3 culture): failed to support cell proliferation or maintain cell viability
- DU145 cells, single agent (DU145 cells; 50 μg/ml and 100 μg/ml, day 6 culture): killed all cells
- cell killing of DU145 (DU145 cells; 100 μg/ml, day 6): near-complete cell killing
